Test results from PubChem BioAssay (NCI).
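96-well plates; 48 h exposure; 5 concentrations. Endpoints by linear interpolation between flanking doses. Not reached: highest tested concentration assigned. GI50: concentration for 50% inhibition of growth. TGI is the concentration that stops growth completely.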

Key:
Assay in all cases: NCI anticancer screen, dose series, 48 h
A549 NSCLC = system: A549 NSCLC
MCF7 breast = system: MCF7 breast
UACC-257 melanoma = system: UACC-257 melanoma
HCC-2998 colon = system: HCC-2998 colon
OVCAR-5 ovarian = system: OVCAR-5 ovarian
PC-3 prostate = system: PC-3 prostate
SR leukemia = system: SR leukemia
TK-10 renal = system: TK-10 renal
SK-MEL-28 melanoma = system: SK-MEL-28 melanoma
SK-OV-3 ovarian = system: SK-OV-3 ovarian

Structure (SMILES)	GI50 (A549 NSCLC) [µM]	TGI (A549 NSCLC) [µM]	GI50 (MCF7 breast) [µM]	TGI (MCF7 breast) [µM]	GI50 (UACC-257 melanoma) [µM]	TGI (UACC-257 melanoma) [µM]	GI50 (HCC-2998 colon) [µM]	TGI (HCC-2998 colon) [µM]	GI50 (OVCAR-5 ovarian) [µM]	TGI (OVCAR-5 ovarian) [µM]	GI50 (PC-3 prostate) [µM]	TGI (PC-3 prostate) [µM]	GI50 (SR leukemia) [µM]	TGI (SR leukemia) [µM]	GI50 (TK-10 renal) [µM]	TGI (TK-10 renal) [µM]	GI50 (SK-MEL-28 melanoma) [µM]	TGI (SK-MEL-28 melanoma) [µM]	GI50 (SK-OV-3 ovarian) [µM]	TGI (SK-OV-3 ovarian) [µM]
COc1ccc(OC)c(-c2cc(-c3ccc(Cl)cc3)nn2-c2ccccc2)c1	65.8	> 100	6.89	> 100	6.45	49.1	26.4	52.8	88.4	> 100	24.2	> 100	4.34	> 100	26.1	88.2				
CCCCCCCC(=O)Nc1nc2[nH]c(CN3CCN(Cc4cccc(I)c4)CC3)c(CN3CCN(Cc4cccc(I)c4)CC3)c2c(=O)[nH]1	0.989	1.91	0.793	1.51	1.14	2.44	0.823	1.54	0.852	1.57	0.837	1.63	0.238	1.06	0.828	1.62	0.937	1.7	0.916	1.7
CC(=O)CCc1ccc(Oc2c3ccccc3nc3occc23)cc1	15.6	35.2	21.3	46.3	14.4	28			19	38.9	14	41	19.7	57.3	15.4	43.9	22.9	46.7	17.8	41.4
Cn1cnc(SC2=CC(=O)C=C3S[C@H]4C[C@@]23c2c(c(O)c3c5c2=NCCC=5C=N3)N4)c1CC(N)C(=O)O (some centres not stated)		30.2		11.5	11.6	23.8	13.6	26.6	19.4	33.6	13.4	51.8	20.9	98.9	18	36.9	16.2	30.4	18	36.6
O=C(Nc1ccc(Cl)cc1)c1cc(NCc2cc(O)ccc2O)ccc1O	18.4	44	3.87	25.5	15.7	30.3	7.7	21.4	4.77	19	1.89	4.92	3.84	> 100	11.1	23.6	10.1	22.4	25	60.7
CCOc1ccc(Nc2ccnc3cc(Cl)ccc23)cc1	> 100	> 100	34.5	> 100	> 100	> 100	> 100	> 100	8.02	> 100	> 100	> 100	14.7	> 100	> 100	> 100	> 100	> 100	> 100	> 100
O=C(N/N=C/c1ccc([N+](=O)[O-])cc1)c1ccccc1Nc1ccnc(C(F)(F)F)c1	15.4	66	19.9	45.6	11.6	37.9	17.9	49.5	24.6	> 100	12.9	29.7	1.5	20.2	0.0799	20.2	14.8	64.2	28	81.4
Oc1cccc2ccc(SSc3ccc4cccc(O)c4n3)nc12		> 100		18.9		43.2		21.3		41.4		29.9		> 100		41.3		41.3		31.7
Cc1ccc(NC(=O)CCc2nnc3s/c(=C\C=C\c4ccccc4)c(=O)n23)cc1		> 100		> 100		> 100		> 100		> 100		> 100		65.6		> 100		> 100		> 100
O=C(O)c1nn(-c2ccc(Cl)cc2)c2c1C(=O)c1ccccc1C2=O		> 100		> 100		> 100		> 100		> 100		> 100		78.7		> 100		> 100		> 100
O=c1cccccc1O		> 100		> 100		> 100		> 100		> 100		> 100		> 100		> 100		> 100		> 100
